Results: US10370333B2 (Sanford Burnham Prebys Medical Discovery Institute, priority 2012, dated 2019)

Target: TNAP (Homo sapiens (Human), UniProt P05186)
Experiment: TNAP (PPi) inhibition assay, pyrophosphate as substrate
Format: biochemical
Experimental: Expression plasmids containing a secreted epitope-tagged TNAP were transfected into COS-1 cells for transient expression. The medium was replaced with Opti-MEM 24 h later and serum-free media containing secreted proteins was collected 60 hours after electroporation. The medium was dialyzed against TBS containing 1 mM MgCl2 and […] (to remove phosphate) and filtered through a […] cellulose acetate filter.
To determine the inhibition selectivity for inhibitor candidates, human TNAP, PLAP or IAP were added to microtiter plates followed by addition of the substrate pNPP (0.5 mM) and activity was measured in 1 M DEA-HCl buffer, pH 9.8 or in 1 M Tris-HCl buffer, pH 7.5, containing 1 mM MgCl2 and 20 μM ZnCl2, in the presence of potential inhibitors (0-30 μM). TNAP, PLAP and IAP activities were adjusted to an approximate λA405 nm, equivalent to 1, measured after 30 min. Residual AP activity in the presence of inhibitors was expressed as percentage of the control activity. To investigate the mechanism of inhibition, double reciprocal plots of enzyme activity (expressed as mA405 nm min−1) vs. substrate concentration were constructed, in the presence of various concentrations of added inhibitors (0-30 μM). The y-axis intercepts of the 1/v vs. 1/[S] plots, were then plotted vs. [I] to graphically extract Ki values as the x-intercept in this plot. […] Inhibitors were further tested and sorted based on their kinetic properties at pH 7.4 using PPi, the relevant natural substrate of TNAP. […] Amounts of released phosphate were measured using the Biomol Green Reagent (Biomol Research Laboratories, Inc., Plymouth Meeting, Pa.).

IC50	SMILES
100 to 1000 nM	COc1ccc(Cl)cc1S(=O)(=O)Nc1cncc(-c2cccc(Cl)c2)c1 [Example III-54, 5-Chloro-N-[5-(3-chloro-phenyl)-pyridin-3-yl]-2-methoxy-benzenesulfonamide]
< 100 nM	COc1ccc(-c2cncc(NS(=O)(=O)c3cc(OC)ccc3OC)c2)c(OC)c1 [Example III-55, N-(5-(2,4-Dimethoxyphenyl)pyridin-3-yl)-2,5-dimethoxybenzenesulfonamide]
< 100 nM	COc1ccc(-c2cncc(NS(=O)(=O)c3cc(Br)ccc3OC)c2)c(OC)c1 [Example III-56, 5-Bromo-N-(5-(2,4-dimethoxyphenyl)pyridin-3-yl)-2-methoxybenzenesulfonamide]
< 100 nM	COc1ccc(-c2cncc(NS(=O)(=O)c3cc(Cl)ccc3OC)c2)c(OC)c1 [Example III-57, 5-Chloro-N-(5-(2,4-dimethoxyphenyl)pyridin-3-yl)-2-methoxybenzenesulfonamide]
< 100 nM	COc1ccc(OC)c(S(=O)(=O)Nc2cncc(-c3ccccn3)c2)c1 [Example III-58, N-([2,3′-Bipyridin]-5′-yl)-2,5-dimethoxybenzenesulfonamide]
< 100 nM	COc1ccc(Br)cc1S(=O)(=O)Nc1cncc(-c2ccccn2)c1 [Example III-59, N-([2,3′-Bipyridin]-5′-yl)-5-bromo-2-methoxybenzenesulfonamide]
< 100 nM	COc1ccc(Cl)cc1S(=O)(=O)Nc1cncc(-c2ccccn2)c1 [Example III-60, N-([2,3′-Bipyridin]-5′-yl)-5-chloro-2-methoxybenzenesulfonamide]
< 100 nM	COc1ccc(Br)cc1S(=O)(=O)Nc1cncc(-c2cccnc2)c1 [Example III-62, N-([3,3′-Bipyridin]-5-yl)-5-bromo-2-methoxybenzenesulfonamide]
< 100 nM	COc1ccc(Br)cc1S(=O)(=O)Nc1cncc(-c2ccncc2)c1 [Example III-65, N-([3,4′-Bipyridin]-5-yl)-5-bromo-2-methoxybenzenesulfonamide]
< 100 nM	COc1ccc(OC)c(S(=O)(=O)Nc2cncc(-c3ccco3)c2)c1 [Example III-67, N-(5-(Furan-2-yl)pyridin-3-yl)-2,5-dimethoxybenzenesulfonamide]
< 100 nM	COc1ccc(Br)cc1S(=O)(=O)Nc1cncc(-c2ccco2)c1 [Example III-68, 5-Bromo-N-(5-(furan-2-yl)pyridin-3-yl)-2-methoxybenzenesulfonamide]
< 100 nM	COc1ccc(Cl)cc1S(=O)(=O)Nc1cncc(-c2ccco2)c1 [Example III-69, 5-Chloro-N-(5-(furan-2-yl)pyridin-3-yl)-2-methoxybenzenesulfonamide]
< 100 nM	COc1ccc(OC)c(S(=O)(=O)Nc2cncc(-c3ccoc3)c2)c1 [Example III-70, N-(5-(Furan-3-yl)pyridin-3-yl)-2,5-dimethoxybenzenesulfonamide]
< 100 nM	COc1ccc(Br)cc1S(=O)(=O)Nc1cncc(-c2ccoc2)c1 [Example III-71, 5-Bromo-N-(5-(furan-3-yl)pyridin-3-yl)-2-methoxybenzenesulfonamide]
< 100 nM	COc1ccc(Cl)cc1S(=O)(=O)Nc1cncc(-c2ccoc2)c1 [Example III-72, 5-Chloro-N-(5-(furan-3-yl)pyridin-3-yl)-2-methoxybenzenesulfonamide]
< 100 nM	COc1ccc(OC)c(S(=O)(=O)Nc2cncc(-c3cccs3)c2)c1 [Example III-73, 2,5-Dimethoxy-N-(5-(thiophen-2-yl)pyridin-3-yl)benzenesulfonamide]
< 100 nM	COc1ccc(Br)cc1S(=O)(=O)Nc1cncc(-c2cccs2)c1 [Example III-74, 5-Bromo-2-methoxy-N-(5-(thiophen-2-yl)pyridin-3-yl)benzenesulfonamide]
< 100 nM	COc1ccc(Cl)cc1S(=O)(=O)Nc1cncc(-c2cccs2)c1 [Example III-75, 5-Chloro-2-methoxy-N-(5-(thiophen-2-yl)pyridin-3-yl)benzenesulfonamide]
< 100 nM	COc1ccc(OC)c(S(=O)(=O)Nc2cncc(-c3ccsc3)c2)c1 [Example III-76, 2,5-Dimethoxy-N-(5-(thiophen-3-yl)pyridin-3-yl)benzenesulfonamide]

IC50	SMILES
< 100 nM	COc1ccc(Br)cc1S(=O)(=O)Nc1cncc(-c2ccsc2)c1 [Example III-77, 5-Bromo-2-methoxy-N-(5-(thiophen-3-yl)pyridin-3-yl)benzenesulfonamide]
< 100 nM	COc1ccc(Cl)cc1S(=O)(=O)Nc1cncc(-c2ccsc2)c1 [Example III-78, 5-Chloro-2-methoxy-N-(5-(thiophen-3-yl)pyridin-3-yl)benzenesulfonamide]
< 100 nM	COc1ccc(OC)c(S(=O)(=O)Nc2cncc(-c3nccs3)c2)c1 [Example III-79, 2,5-Dimethoxy-N-(5-(thiazol-2-yl)pyridin-3-yl)benzenesulfonamide]
< 100 nM	COc1ccc(Br)cc1S(=O)(=O)Nc1cncc(-c2nccs2)c1 [Example III-80, 5-Bromo-2-methoxy-N-(5-(thiazol-2-yl)pyridin-3-yl)benzenesulfonamide]
< 100 nM	COc1ccc(Cl)cc1S(=O)(=O)Nc1cncc(-c2nccs2)c1 [Example III-81, 5-Chloro-2-methoxy-N-(5-(thiazol-2-yl)pyridin-3-yl)benzenesulfonamide]
< 100 nM	COc1ccc(OC)c(S(=O)(=O)Nc2cncc(-c3cncs3)c2)c1 [Example III-82, 2,5-Dimethoxy-N-(5-(thiazol-5-yl)pyridin-3-yl)benzenesulfonamide]
< 100 nM	COc1ccc(Br)cc1S(=O)(=O)Nc1cncc(-c2cncs2)c1 [Example III-83, 5-Bromo-2-methoxy-N-(5-(thiazol-5-yl)pyridin-3-yl)benzenesulfonamide]
< 100 nM	COc1ccc(Cl)cc1S(=O)(=O)Nc1cncc(-c2cncs2)c1 [Example III-84, 5-Chloro-2-methoxy-N-(5-(thiazol-5-yl)pyridin-3-yl)benzenesulfonamide]
< 100 nM	COc1ccc(OC)c(S(=O)(=O)Nc2cncc(-c3cscn3)c2)c1 [Example III-85, 2,5-Dimethoxy-N-(5-(thiazol-4-yl)pyridin-3-yl)benzenesulfonamide]
< 100 nM	COc1ccc(Br)cc1S(=O)(=O)Nc1cncc(-c2cscn2)c1 [Example III-86, 5-Bromo-2-methoxy-N-(5-(thiazol-4-yl)pyridin-3-yl)benzenesulfonamide]
< 100 nM	COc1ccc(Cl)cc1S(=O)(=O)Nc1cncc(-c2cscn2)c1 [Example III-87, 5-Chloro-2-methoxy-N-(5-(thiazol-4-yl)pyridin-3-yl)benzenesulfonamide]
100 to 1000 nM	COc1ccc(OC)c(S(=O)(=O)Nc2cncc(-c3ncccn3)c2)c1 [Example III-91, 2,5-Dimethoxy-N-(5-(pyrimidin-2-yl)pyridin-3-yl)benzenesulfonamide]
< 100 nM	COc1ccc(Br)cc1S(=O)(=O)Nc1cncc(-c2ncccn2)c1 [Example III-92, 5-Bromo-2-methoxy-N-(5-(pyrimidin-2-yl)pyridin-3-yl)benzenesulfonamide]
< 100 nM	COc1ccc(Cl)cc1S(=O)(=O)Nc1cncc(-c2ncccn2)c1 [Example III-93, 5-Chloro-2-methoxy-N-(5-(pyrimidin-2-yl)pyridin-3-yl)benzenesulfonamide]
< 100 nM	COc1ccc(OC)c(S(=O)(=O)Nc2cncc(-c3cnccn3)c2)c1 [Example III-94, 2,5-Dimethoxy-N-(5-(pyrazin-2-yl)pyridin-3-yl)benzenesulfonamide]
< 100 nM	COc1ccc(Br)cc1S(=O)(=O)Nc1cncc(-c2cnccn2)c1 [Example III-95, 5-Bromo-2-methoxy-N-(5-(pyrazin-2-yl)pyridin-3-yl)benzenesulfonamide]
< 100 nM	COc1ccc(Cl)cc1S(=O)(=O)Nc1cncc(-c2cnccn2)c1 [Example III-96, 5-Chloro-2-methoxy-N-(5-(pyrazin-2-yl)pyridin-3-yl)benzenesulfonamide]
< 100 nM	CCCOC(=O)c1cncc(NS(=O)(=O)c2cc(Br)ccc2OC)c1 [Example IV-3, Propyl 5-(5-bromo-2-methoxyphenylsulfonamido)nicotinate]

SMILES	IC50
COc1ccc(OC)c(S(=O)(=O)Nc2cncc(-c3cnn(C)c3)c2)c1 [Example III-88, 2,5-Dimethoxy-N-(5-(1-methyl-1H-pyrazol-4-yl)pyridin-3-yl)benzenesulfonamide]	< 100 nM
COc1ccc(Br)cc1S(=O)(=O)Nc1cncc(-c2cnn(C)c2)c1 [Example III-89, 5-Bromo-2-methoxy-N-(5-(1-methyl-1H-pyrazol-4-yl)pyridin-3-yl)benzenesulfonamide]	< 100 nM
COc1ccc(Cl)cc1S(=O)(=O)Nc1cncc(-c2cnn(C)c2)c1 [Example III-90, 5-Chloro-2-methoxy-N-(5-(1-methyl-1H-pyrazol-4-yl)pyridin-3-yl)benzenesulfonamide]	< 100 nM
COC(=O)c1cncc(NS(=O)(=O)c2cc(Br)ccc2OC)c1 [Example IV-1, Methyl 5-(5-bromo-2-methoxyphenylsulfonamido)nicotinate]	< 100 nM
CCOC(=O)c1cncc(NS(=O)(=O)c2cc(Br)ccc2OC)c1 [Example IV-2, Ethyl 5-(5-bromo-2-methoxyphenylsulfonamido)nicotinate]	< 100 nM
